Assay results from paper PMC12670405, “Second-Generation AURKA-Targeting PROTACs: Structural Optimization toward in Vivo Degradation in Neuroblastoma” (Journal of Medicinal Chemistry, 2025).
pIC50, pKi: −log10 of the molar value.

Key:
SK-N-SH = experiment: IncuCyte live-cell imaging, antiproliferative effect; type: cell-based; details: Homo sapiens, 72 h, read-out: Cell GI50 72h
In short: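 Cells seeded in 384-well plates (neuroblastoma 1200–5000, HEK293T 600 cells/well), adhered overnight, then compound-treated in duplicate or triplicate; confluency tracked by IncuCyte live-cell imaging. Normalized confluence averaged from 3 experiments; absolute GI50 interpolated from four-parameter variable-slope curves.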

SK-N-BE(2)-C = experiment: as above; type: cell-based, human; details: 72 h; for GI50: Homo sapiens, SK-N-BE(2)-C, read-out: Cell GI50 72h; for growth-inhibitory activity upon cotreatment with tariquidar (in words): NGP, SJNB-8 and SK-N-BE(2)-C, 1 μM tariquidar
Excerpt: Human neuroblastoma cell lines NGP, IMR-32, SJNB-8, SK-N-BE(2)-C, SJNB-1, SK-N-SH and SK-N-AS, as well as benign immortalized cell lines RPE and HEK293T were either bought commercially or obtained through research laboratories. […] Screening for mycoplasma contamination occurred routinely on the cells. Human neuroblastoma cell lines SH-SY5Y_shABCB1 & SH-SY5Y_shNTC were generated by transduction with pLKO.1-ABCB1_TRCN0000059683 shRNA (Sigma MISSION SHCLND) or pLKO.1-puro NT shRNA (Sigma MISSION SHC002) vectors respectively (Supplementary Table S6), packaged using Lenti-X293T (Clontech). Transduced cells were selected with 2 μg/mL puromycin. These cells were cultured in DMEM 4.5 g/L D-Glucose, L-Glutamine and 110 mg/L Sodium Pyruvate (Gibco, #11995065) supplemented with 10% fetal bovine serum, 1× Antibiotic-Antimycotic solution (Sigma-Aldrich, #A5955) and 1× MEM nonessential amino acids (Sigma-Aldrich, #M7145). Incubation of all cells occurred at 37 °C and 5% CO2.
Neuroblastoma cells were seeded in 384-well plates at different densities ranging from 1200 to 5000 cells/well and allowed to adhere overnight. RPE and HEK293T were seeded at 200 and 600 cells/well, respectively. Compound treatment was performed using the D300e Digital Dispenser (Tecan) in duplicate or triplicate and cell confluency was monitored over time using the IncuCyte Live-cell imaging system (Sartorius). […] Mean normalized confluences were calculated from 3 individual experiments.
(§1) All dose–response curves were computed on GraphPad Prism using the Variable Slope (four parameters) equation. Absolute half-maximal degradation (DC50), growth inhibitory (GI50) and enzymatic inhibitory (IC50) concentrations, as well as inhibition constants (Ki) were derived from dose–response curves via interpolation. Statistical tests were performed on GraphPad Prism and detailed in the figure legends. Unless otherwise stated, “n” in the figure legends indicates the number of independent experiments conducted at different times.

CRBN = target: T1, CRBN (Homo sapiens, UniProt Q96SW2); experiment: CRBN binding assay (E3scan, Eurofins Discovery)
T1 construct: purchased Eurofins Discovery
Procedure: (§2) AURKA, AURKB and CRBN binding assays were performed by Eurofins Discovery using the KdELECT Kinase Assay Panel (AURKA and AURKB), or the E3scan Ligand Binding Assay Technology (CRBN). More information can be found on the Eurofins Discovery Web site.
(§3) Graphs were generated using GraphPad Prism Software (version 10.1.2) or RStudio (R-4.3.2). All dose–response curves were computed on GraphPad Prism using the Variable Slope (four parameters) equation. Absolute half-maximal degradation (DC50), growth inhibitory (GI50) and enzymatic inhibitory (IC50) concentrations, as well as inhibition constants (Ki) were derived from dose–response curves via interpolation. Statistical tests were performed on GraphPad Prism and detailed in the figure legends. Unless otherwise stated, “n” in the figure legends indicates the number of independent experiments conducted at different times.

AURKA = target: T2, AURKA (Homo sapiens, UniProt O14965); experiment: AURKA binding assay (KINOMEscan / KdELECT, Eurofins Discovery); design: purchased Eurofins Discovery; details: for binding selectivity for AURKA over AURKB: Ki AURKB vs Ki AURKA
T2 sequence (O14965 1-403): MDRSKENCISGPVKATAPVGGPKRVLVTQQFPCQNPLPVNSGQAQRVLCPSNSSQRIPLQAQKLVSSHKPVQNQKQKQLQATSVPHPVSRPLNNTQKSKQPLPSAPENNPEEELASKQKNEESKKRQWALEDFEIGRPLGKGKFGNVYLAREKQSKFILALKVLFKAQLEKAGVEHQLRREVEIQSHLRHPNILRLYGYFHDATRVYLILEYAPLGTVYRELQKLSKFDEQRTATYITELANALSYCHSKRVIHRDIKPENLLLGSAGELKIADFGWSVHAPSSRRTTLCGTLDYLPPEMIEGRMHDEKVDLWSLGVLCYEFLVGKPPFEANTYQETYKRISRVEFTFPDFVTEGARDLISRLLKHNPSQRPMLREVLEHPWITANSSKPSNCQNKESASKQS
Procedure: as §2, §3

NanoLuc-AURKA [1] = target: T3, NanoLuc-AURKA (Homo sapiens, UniProt O14965); experiment: NanoBRET target engagement, permeabilized mode; type: binding; details: permeabilized HEK293T; read-out: NanoBRET IC50, tracer displacement from NanoLuc-AURKA
T3 construct: Plasmids encoding full-length wild-type AURKA fused to Nano-Luc; host or cells: HEK293T
T3 sequence (O14965 1-403): T2 sequence (O14965 1-403)
Procedure: (§4) The NanoBRET Target Engagement Assay (Promega) was performed according to the recommended instructions from the manufacturer. Plasmids encoding full-length wild-type AURKA fused to Nano-Luc via AURKA’s C-terminus (Promega, #NV1041) were transfected into HEK293T cells using FuGENE HD (Promega, #E2312). […] The plate was mixed at 900 rpm for 15 s, using an orbital shaker. For the permeabilized-mode, digitonin (Sigma-Aldrich, #D141) was additionally added at a final concentration of 50 μg/mL. Test compounds were subsequently administered in duplicate using the D300e digital dispenser (Tecan), followed by incubation for 2 h (37 °C, 5% CO2). To measure BRET, nanoglo substrate and extracellular nanoluc inhibitor (only in live-mode) (Promega #N2540) were added, and luminescence was measured using the GloMax Discover Microplate Reader (Promega) with a luminescence filter pair of 450 nm (BP filter, donor) and 600 nm (LP filter, acceptor). The NanoBRET ratio was calculated using the following formula: BRET ratio = 1000*[(acceptor signal/donor signal)with tracer – (acceptor signal/donor signal)no tracer]. Relative BRET ratios (%) were generated by normalizing to the negative DMSO control. The experiment was performed once with 2 replicate samples.
as §1

NanoLuc-AURKA [2] = target: T3, NanoLuc-AURKA; experiment: NanoBRET target engagement, live (intact) cells; type: cell-based; details: intact HEK293T
Procedure: as §4, §1

T1 sequence (Q96SW2 whole entry): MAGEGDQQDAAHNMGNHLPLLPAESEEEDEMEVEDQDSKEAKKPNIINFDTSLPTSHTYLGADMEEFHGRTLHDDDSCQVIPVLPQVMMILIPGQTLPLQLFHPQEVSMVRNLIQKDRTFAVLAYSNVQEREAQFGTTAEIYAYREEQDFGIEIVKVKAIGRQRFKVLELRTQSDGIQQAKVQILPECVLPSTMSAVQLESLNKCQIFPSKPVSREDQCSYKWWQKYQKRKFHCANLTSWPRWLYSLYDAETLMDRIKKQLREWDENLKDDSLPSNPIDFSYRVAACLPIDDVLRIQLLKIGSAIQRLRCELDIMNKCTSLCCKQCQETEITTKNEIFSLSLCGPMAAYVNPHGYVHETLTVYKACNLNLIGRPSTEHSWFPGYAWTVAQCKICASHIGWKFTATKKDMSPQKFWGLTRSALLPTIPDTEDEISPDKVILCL

| Compound | GI50 (SK-N-SH) | GI50 (SK-N-BE(2)-C) | pKi (CRBN) | pKi (AURKA) | binding selectivity for AURKA over AURKB (AURKA) | growth-inhibitory activity upon cotreatment with tariquidar (in words) (SK-N-BE(2)-C) | pIC50 (NanoLuc-AURKA [1]) | NanoLuc-AURKA engagement in intact cells (in words) (NanoLuc-AURKA [2]) |
| --- | --- | --- | --- | --- | --- | --- | --- | --- |
| O=C1CCC(N2C(=O)c3cccc(OCCOCCOCCOCCNC(=O)[C@]4(Cc5cccc(Nc6nccs6)n5)CC[C@@H](Oc5cccc(Cl)c5F)CC4)c3C2=O)C(=O)N1 (stereo partly shown) [SK2188, reference compound] | 1.58 µM | 3.73 µM | 6.56 | 8.70 | more than 2000 fold |  |  |  |
| Cc1cc(Nc2ccc(F)c(CC3(C(=O)N4CCC(CN5CCN(c6ccc(N7CCC(=O)NC7=O)cn6)CC5)CC4)CCN(Cc4cccc(Cl)c4F)CC3)n2)n[nH]1 [SK4454] | 0.43 µM | 1.11 µM | 5.39 | 9.00 | more than 2000 fold | comparable to AURKA inhibitor TAS-119 | ~7.70 | able to bind NanoLuc-AURKA in intact cells |
| Cc1cc(Nc2ccc(F)c(CC3(C(=O)N4CCC(F)(CN5CCN(c6ccc(N7CCC(=O)NC7=O)cn6)CC5)CC4)CCN(Cc4cccc(Cl)c4F)CC3)n2)n[nH]1 [SK5527] | 0.244 µM | 0.477 µM | 5.95 | 8.70 | more than 2000 fold | comparable to AURKA inhibitor TAS-119 | ~7.70 | able to bind NanoLuc-AURKA in intact cells |
| O=C1CCN(c2ccc(N3CCN(CC4CCN(C(=O)[C@]5(Cc6cccc(Nc7nccs7)n6)CC[C@@H](Oc6cccc(Cl)c6F)CC5)CC4)CC3)nc2)C(=O)N1 [PROTAC 24] |  |  | 5.37 | 9.00 | more than 2000 fold |  |  |  |
| O=C1CCC(Nc2ccc(N3CCN(C4CN(C(=O)[C@]5(Cc6cccc(Nc7nccs7)n6)CC[C@@H](Oc6cccc(Cl)c6F)CC5)C4)CC3)c(F)c2)C(=O)N1 (stereo partly shown) [PROTAC 18] |  |  | 5.92 |  |  |  |  |  |
